Results: patent US20170143674A1, “Use of Glutaryl Histamine for the Treatment of Respiratory Tract Diseases” (LTD "VALENTA-INTELLEKT", priority 2011, published 2017)
Read-outs that look alike come from different tables or passages of the source. Marks after values point to notes of the source that are not given here.

How the values were obtained:
[1] = test system: Staphylococcus aureus (mouse-adapted MRSA strain 5); assay: animal or person; assay type: in vivo, mice
Method: Tested medicament was glutaryl histamine in doses of 15, 30 and 45 mg/kg. Solutions of the tested medicament for oral administration were prepared ex tempore in stream water. Ampicillin (in intravenous administration) was used as a therapeutic preparation since it is the most experimentally studied antibiotic approved in clinical practice many years ago. Levofloxacin was used as a positive control (in oral administration).
Staphylococcus aureus was used as an infectious agent (mouse-adapted MRSA strain 5, collection from GU NIINA im.G.F. Gauze RAMN).
Firstly, there was determined a lethal dose (LD100) of staphylococcus when intravenously administered to this line of mice with a certain weight. Fatal cases among mice were registered every day for ten days. […] After that, there was determined the dose of ampicillin providing a survival rate of 20% of mice infected with staphylococcus MRSA taken in a lethal dose. For this purpose, mice were housed into cages by 10 animals and infected with a lethal dose of staphylococcus. One hour later, each mouse was intravenously administered ampicillin in doses of 30, 60, 90, 120, 150, and 180 mg/kg. A group of mice infected with a lethal dose of staphylococcus without the treatment was considered as a control group. Fatal cases among mice were registered every day for ten days.
The next step of the experiment was to study an effect of combined administration of glutaryl histamine with ampicilline on a model of MRSA-induced staphylococcal sepsis in mice.
In the experiment, the mice were housed in following groups of 10 animals per cage: […]

[2] = test system: Escherichia coli (mouse-adapted strain 4300); assay: animal or person; assay type: in vivo, mice
Method: Escherichia coli (mouse-adaptedstrain 4300, Institute collection) was used as an infectious agent. Mice were infected intravenously.
Firstly, there were determined a lethal dose (LD100) of Escherichia coli to be intravenously administered to this line of mice with a certain weight. Fatal cases among mice were registered every day for ten days. […] For this purpose, mice were housed into cages (10 animals per cage) and infected with a lethal dose of Escherichia coli. One hour after each mouse was administered orally levofloxacin in doses of 1, 2, 4, 6, 8, 10, and 12 mg/kg. A group of mice infected with a lethal dose of Escherichia coli without the treatment was considered as a control group. Fatal cases among mice were registered every day for ten days.
The next step of the experiment was to study an effect of combined administration of glutaryl histamine and levofloxacin on a model of E. coli sepsis in mice.
(§1) In the experiment, mice were housed in following groups (10 animals per cage):
Glutaryl histamine was administered orally in the corresponding doses to mice of groups 3, 4, 5, 6, 7, and 8 for 5 days. Five day after, all groups of mice were intravenously administered 0.2 ml of Escherichia coli in the lethal dose. […] After infection and administration of levofloxacin, glutaryl histamine was administered to mice of groups 3-8 for additional 5 days. During the experiment, the animals were observed every day, and fatal cases were registered (see Table 14).

[3] = test system: Staphylococcus aureus (mouse-adapted strain 10); assay: animal or person; assay type: in vivo, mice
Method: The tested medicament was glutaryl histamine in doses of 15, 30 and 45 mg/kg. Solutions of the tested medicament for oral administration were prepared ex tempore. Levofloxacin (in oral administration) was used as a therapeutic preparation since this substance was the most experimentally studied antibiotic approved in clinical practice many years ago.
Staphylococcus aureus (mouse-adaptedstrain 10) was used as an infectious agent. Mice were infected intravenously.
Firstly, there was determined a lethal dose (LD100) of staphylococcus to be intravenously administered to this line of mice having a certain weight. Fatal cases among mice were registered every day for ten days. The lethal dose was 3×10^8 CFU/mouse. […] For this purpose, mice were housed into cages (10 animals per cage) and infected with a lethal dose of staphylococcus. One hour after each mouse was administered orally levofloxacin in doses of 1, 2, 4, 6, 8, 10, and 12 mg/kg. A group of mice infected with a lethal dose of staphylococcus without the treatment was considered as a control group. Fatal cases among mice were registered every day for ten days.
The next step of the experiment was to study an effect of combined administration of glutaryl histamine and levofloxacin on a model of staphylococcal sepsis in mice.
as §1
Glutaryl histamine was administered orally in the corresponding doses to the mice of groups 3, 4, 5, 6, 7, and 8 for 5 days. Five day after, all groups of mice were intravenously administered with 0.2 ml of Staphylococcus aureus in the lethal dose. […] After infection and administration of levofloxacin, glutaryl histamine was administered to mice of groups 3-8 for additional 5 days. During the experiment, the animals were observed every day, and fatal cases were registered (see Table 13).

LPS-induced tonsillitis = LPS-induced tonsillitis model (E. coli LPS into cervical lymph node); assay type: in vivo; details: Diclofenac (11 mg/kg)
Method: This example is aimed at evaluating the activity of glutaryl histamine on experimental model of tonsillitis. LPS-induced tonsillitis is one of the most adequate models for the study of the pathogenesis, pathomorphological changes and action of pharmacological medicaments on the course of this disease.
Tonsillitis was induced under anesthesia by administration of a solution of E. coli lipopolysaccharide (LPS) (Sigma) in normal physiological solution in a dose of 20 μg/kg, by 10 μl to the right upper lymph node (Inn. Cervicales superficiales). After administration, the lymph nodes were put under superficial neck muscles and then the skin was stitched. The wound was treated with streptocide. The animal was placed into a post-operation cage.
The tested medicament was administered once daily in a given dose strictly at the stated time for three days before the induction of tonsillitis and 10 days after. Normal saline solution was used as placebo.
Immediately after euthanasia, the animals were subjected to necropsy, the affected and intact lymph nodes were removed and weighed.
The lymph nodes derived from the half of animals from each group were being frozen after removal in a refrigerating chamber at −25° C. for 72 hours. Then the lymph nodes were lyophilized.
In a half of animals from each group (7), the affected lymph nodes were subjected to histological analysis. After euthanasia, intact and affected lymph nodes were removed from each animal. […] Sections with a thickness of 4 to 6 μm were prepared from the paraffin blocks, stained with hematoxylin and eosin to reveal typical pathological processes and study required parameters using light-optical microscope Leica DM LS (magnification 200× and 400×).
Weights of intact and affected lymph nodes were compared and the nodes also were lyophilized to evaluate an effect of the medicaments on the swelling degree and adequacy of the model of tonsillitis.
The protein-synthetic function of the liver and a systemic effect of the medicaments on organism were evaluated in total protein (TP) analysis.

[4] = test system: acute rhinosinusitis induced by intranasal administration of formalin; assay type: in vivo, rat
Method: Activity of glutaryl histamine was studied in an experimental model of acute rhinosinusitis (ARS).
Administration of 20 μl of 7.5% formalin to the rat nasal passages leads to the development of a clinical picture similar to the symptoms of acute rhinosinusitis in a human.
The tested medicament and reference medicaments were administered for 7 days after administration of 7.5% formalin. Normal saline solution was used as placebo. The animals were subjected to euthanasia on day 8 after induction of experimental acute rhinosinusitis by method of air embolism. During necropsy, nasal passages of all animals were sampled. The obtained material was placed into 10% neutral-buffered formalin for further histological analysis.
The mucous and submucous membranes of both nasal passages (respiratory and olfactory regions) of the experimental animals were subjected to a morphological analysis of the specific activity of glutaryl histamine.
After the clinical phase of the experiment, the material derived from the animals was subjected to the standard treatment to prepare histological paraffin sections with a thickness of 3 to 5 μm. The sections were stained with hematoxylin and eosin for a microscopic study. Comparison and histological analysis of changes were performed versus the group of intact rats.
The main pathological processes inherent in experimental acute rhinosinusitis, such as vascular congestion in mucous membrane, hyperplasia and necrosis of the epithelium, the number of caliciform cells within 1 mm of the mucous membrane in the nasal septum, were evaluated by a semi-quantitative method to evaluate the degree of pathophysiological changes in histological, histochemical and morphological studies.
The microscopic analysis of exudative disorder developed in rats with acute rhinitis was aimed at measuring the number of caliciform cells comprising acidic mucus (Table 3).

[5] = group 3: levofloxacin 4 mg/ml per os one time
[6] = levofloxacin 20 mg/kg, tenth day
[7] = levofloxacin 2.65 mg/kg, tenth day
[8] = Diclofenac 11 mg/kg, n = 10, listed as diclofenac

C[C@H]1COc2c(N3CCN(C)CC3)c(F)cc3c(=O)c(C(=O)O)cn1c23 [levofloxacin, reference compound]
ED50 ([1]; Staphylococcus aureus, MRSA, po): 4 mg/kg | died/survived animals ([1]; day 1, group 3: levofloxacin 4 mg/ml per os one time): 0/10 | died/survived animals ([1]; day 2, group 3: levofloxacin 4 mg/ml per os one time): 0/10 | died/survived animals ([1]; day 3, group 3: levofloxacin 4 mg/ml per os one time): 0/10 | died/survived animals ([1]; day 4, group 3: levofloxacin 4 mg/ml per os one time): 1/9 | died/survived animals ([1]; day 5, group 3: levofloxacin 4 mg/ml per os one time): 2/8 | died/survived animals ([1]; day 6, group 3: levofloxacin 4 mg/ml per os one time): 3/7 | died/survived animals ([1]; day 7, group 3: levofloxacin 4 mg/ml per os one time): 4/6 | died/survived animals ([1]; day 8, group 3: levofloxacin 4 mg/ml per os one time): 5/5 | died/survived animals ([1]; day 9, group 3: levofloxacin 4 mg/ml per os one time): 5/5 | died/survived animals ([1]; day 10, group 3: levofloxacin 4 mg/ml per os one time): 5/5 | Mortality rate (%) [1, 5]: 50% | Survival rate (%) [1, 5]: 50% | ED50 ([2]; Escherichia coli, po, read-out: ED50 (50% effective dose)): 2.97 mg/kg | died/survived animals ([2]; day 1, levofloxacin 20 mg/kg): 0/10 | died/survived animals ([2]; day 2, levofloxacin 20 mg/kg): 0/10 | died/survived animals ([2]; day 3, levofloxacin 20 mg/kg): 0/10 | died/survived animals ([2]; day 4, levofloxacin 20 mg/kg): 1/9 | died/survived animals ([2]; day 5, levofloxacin 20 mg/kg): 2/8 | died/survived animals ([2]; day 6, levofloxacin 20 mg/kg): 3/7 | died/survived animals ([2]; day 7, levofloxacin 20 mg/kg): 4/6 | died/survived animals ([2]; day 8, levofloxacin 20 mg/kg): 5/5 | died/survived animals ([2]; day 9, levofloxacin 20 mg/kg): 5/5 | died/survived animals ([2]; day 10, levofloxacin 20 mg/kg): 5/5 | Mortality rate (%) [2, 6]: 50% | Survival rate (%) [2, 6]: 50% | ED50 ([3]; Staphylococcus aureus, po, read-out: ED50 (50% effective dose)): 2.65 mg/kg | died/survived animals ([3]; day 1, levofloxacin 2.65 mg/kg): 0/10 | died/survived animals ([3]; day 2, levofloxacin 2.65 mg/kg): 0/10 | died/survived animals ([3]; day 3, levofloxacin 2.65 mg/kg): 1/9 | died/survived animals ([3]; day 4, levofloxacin 2.65 mg/kg): 2/8 | died/survived animals ([3]; day 5, levofloxacin 2.65 mg/kg): 4/6 | died/survived animals ([3]; day 6, levofloxacin 2.65 mg/kg): 4/6 | died/survived animals ([3]; day 7, levofloxacin 2.65 mg/kg): 4/6 | died/survived animals ([3]; day 8, levofloxacin 2.65 mg/kg): 5/5 | died/survived animals ([3]; day 9, levofloxacin 2.65 mg/kg): 5/5 | died/survived animals ([3]; day 10, levofloxacin 2.65 mg/kg): 5/5 | Mortality rate (%) [3, 7]: 50% | Survival rate (%) [3, 7]: 50%

O=C(O)Cc1ccccc1Nc1c(Cl)cccc1Cl [Diclofenac, diclofenac, reference compound]
Mortality rate (%) (LPS-induced tonsillitis): 29% | The number of died animals/initial number of animals in a group (LPS-induced tonsillitis): 4/14 | Area of germinal centers of lymphoid follicles in affected lymph nodes (LPS-induced tonsillitis; M ± m): 0.074 ± 0.007* mm^2 | Weight difference between affected and intact lymph nodes (LPS-induced tonsillitis; M ± m): 16.3 ± 1.4 mg | Mucopurulent catarrh (number of rats) ([4]; Diclofenac 11 mg/kg, n = 10): 7 | Mucous catarrh (number of rats) ([4]; Diclofenac 11 mg/kg, n = 10): 3 | Without changes (number of rats, mucous membrane in the nasal passages, macroscopic) ([4]; Diclofenac 11 mg/kg, n = 10): 0 | Mucopurulent catarrh (number of rats) [4, 8]: four | Mucous catarrh (number of rats) [4, 8]: three | The number of caliciform cells within 1 mm of the mucosal membrane of the nasal septum ([4]; Diclofenac (11 mg/kg), M ± m): 31.8 ± 1.9* **
